{"source": "patent US12522635B2", "about": "“Amyloid peptide variants” (Loyola Marymount University, priority 2019, dated 2026)", "key": {"[1]": {"assay": "AFM of peptide alone (self-aggregation / fibril formation)", "format": "physicochemical", "settings": "for aggregation propensity relative to comparator: comparison of pramlintide with the IAPP peptides; for aggregation / fibril formation of peptide alone, AFM: incubated 40 minutes at 37° C. with shaking", "protocol": "Samples labeled with hIAPP contained 40 μM hIAPP. The sample with pramlintide and hIAPP contained a 2:1 molar mixture (80 μM Pramlintide mixed with 40 μM hIAPP). The samples with raccoon IAPP and Pramlintide alone contained 40 μM of the indicated peptides. Each sample was incubated for 40 minutes at 37° C. with shaking; conditions known to promote hIAPP amyloid formation. All scans show raw data with no flattening and are […].\nSamples of hIAPP with or without animal IAPP were prepared as described in Example 1 and were then incubated with shaking at 37° C. for 40 minutes. After this incubation, 17 μL of each sample was deposited onto freshly cleaved mica. Samples were incubated for 5 minutes at room temperature before washing with 200 μL sterile water. After drying, the samples were scanned using an MFP-3D atomic force microscope (Asylum Research) set on A/C mode and a 240 m silicon cantilever (Olympus).\nMany of the animal IAPP variants are known to likewise form fibrils and yield amyloid-plaques when scanned via AFM. […] This is in spite of the fact that all of these IAPP peptides (except polar bear IAPP) are known to aggregate and form fibrils themselves under these or similar conditions"}, "human IAPP (hIAPP) [2]": {"biological_target": "T1, human IAPP (hIAPP) (Homo sapiens, UniProt P10997)", "T1 construct": "This 37 amino acid polypeptide is co-secreted from pancreatic β-islet cells with insulin", "T1 sequence (P10997 34-70 limits assumed)": "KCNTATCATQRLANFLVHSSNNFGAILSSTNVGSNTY", "assay": "Atomic force microscopy (AFM) of hIAPP fibril formation when mixed with IAPP peptides", "format": "biochemical", "settings": "for inhibition of hIAPP fibril formation, AFM: 37 μM hIAPP and 75 μM peptide, 37° C. with shaking for 40 minutes", "procedure,_shortened": "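hIAPP (37–40 μM) alone or mixed with other IAPP peptides (equimolar or about 2:1 peptide:hIAPP) was shaken at 37° C for 30–40 minutes. Samples deposited on mica, washed with water, dried and imaged by AFM in A/C mode; scans […], raw unflattened data.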"}, "human IAPP (hIAPP) [3]": {"biological_target": "T1, human IAPP (hIAPP)", "assay": "Thioflavin T binding assay of hIAPP aggregation when mixed with IAPP peptides", "format": "biochemical", "settings": "peptide mixed with hIAPP; no single assay (thioflavin T and AFM)", "procedure,_shortened": "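37 μM hIAPP plus 75 μM animal IAPP (2:1) in 20 mM Tris pH 7.4, shaken 200 rpm at 37 °C for 40 min. Aliquots were mixed into 50.0 μM thioflavin T and emission read at 488 nm, with fibrils checked by AFM. Significance vs hIAPP alone was determined by t-test.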"}, "RIN-m cells": {"system": "RIN-m cells", "assay": "MTT viability assay, peptide alone or mixed with hIAPP", "format": "cell-based", "settings": "for rescue / protection of cells from hIAPP toxicity (words): hIAPP mixed with peptide 1:1, MTT assay; for toxicity of peptide to cells: peptide alone, MTT assay, pancreatic (RIN-m) cells", "procedure,_shortened": "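RIN-m cells were exposed to hIAPP alone, each animal IAPP peptide alone, or hIAPP mixed with an animal IAPP for 46 h at 37° C in RPMI-1640 with 10% FBS. Viability by MTT reduction (2 h), formazan solubilized in SDS/DMF and read at 570 nm, relative to untreated cells as 100%.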"}, "human IAPP (hIAPP) [4]": {"biological_target": "T1, human IAPP (hIAPP)", "assay": "hIAPP aggregation in the presence of human insulin", "format": "biochemical"}, "[5]": {"settings": "following injection; Wijesekara et al. 2015; cited from earlier work"}, "human IAPP": {"biological_target": "T2, human IAPP (Homo sapiens, UniProt P10997)", "T2 sequence (P10997 34-70 limits assumed)": "T1 sequence (P10997 34-70 limits assumed)", "settings": "cited from earlier work"}}, "note": "Entries after “also recorded” stand apart in the source; their conditions may differ. Where a SMILES comes first, the peptide text is derived from it. Bridges are numbered along the chain shown (N, C = ends).", "data": [{"compound": "CC[C@H](C)[C@H](NC(=O)[C@H](C)NC(=O)CNC(=O)[C@@H](NC(=O)[C@H](CC(N)=O)NC(=O)[C@H](CO)NC(=O)[C@H](CO)NC(=O)[C@H](CO)NC(=O)[C@H](CCCNC(=N)N)NC(=O)[C@@H](NC(=O)[C@H](CC(C)C)NC(=O)[C@H](Cc1ccccc1)NC(=O)[C@H](CC(=O)O)NC(=O)[C@H](C)NC(=O)[C@H](CC(C)C)NC(=O)[C@H](CCCNC(=N)N)NC(=O)[C@H](CCC(N)=O)NC(=O)[C@@H](NC(=O)[C@@H](NC(=O)[C@@H]1CSSC[C@H](NC(=O)[C@@H](N)CCCCN)C(=O)N[C@@H](CC(N)=O)C(=O)N[C@@H]([C@@H](C)O)C(=O)N[C@@H](C)C(=O)N[C@@H]([C@@H](C)O)C(=O)N1)C(C)C)[C@@H](C)O)C(C)C)[C@@H](C)CC)C(=O)N[C@@H](Cc1ccc(O)cc1)C(=O)N[C@@H](CO)C(=O)N1CCC[C@H]1C(=O)N[C@H](C(=O)N[C@@H](CC(N)=O)C(=O)N[C@H](C(=O)NCC(=O)N[C@@H](CO)C(=O)N[C@@H](CC(N)=O)C(=O)N[C@H](C(=O)N[C@@H](Cc1ccc(O)cc1)C(N)=O)[C@@H](C)O)C(C)C)[C@@H](C)O", "note": "[chicken IAPP] (H-KCNTATCVTQRLADFLVRSSSNIGAIYSPTNVGSNTY-NH2; disulfide 2-7 (inferred); N-terminus and C-terminus assumed)", "values": [{"measurement": "aggregation propensity relative to comparator", "setting": "[1]", "result": "less aggregation-prone than Pramlintide"}, {"measurement": "inhibition of hIAPP fibril formation, AFM", "setting": "human IAPP (hIAPP) [2]", "result": "significant ability to prevent fiber formation"}, {"measurement": "inhibition of hIAPP aggregation (summary statement)", "setting": "human IAPP (hIAPP) [3]", "result": "able to inhibit such aggregation; also recorded: inhibit aggregate formation by hIAPP"}, {"measurement": "rescue / protection of cells from hIAPP toxicity (words)", "setting": "RIN-m cells", "result": "significant increase in cell viability; also recorded: rescue living cells from the toxic effects of hIAPP"}, {"measurement": "prevention of hIAPP aggregation in the presence of human insulin", "setting": "human IAPP (hIAPP) [4]", "result": "prevent hIAPP aggregation in the presence of human insulin"}]}, {"compound": "ANFLVH (Islet amyloid polypeptide; UniProt P10997 46-51, looked up, fragment) [peptide derived from human IAPP, from Wijesekara et al. 2015]", "values": [{"measurement": "fasting blood glucose levels and glucose tolerance", "setting": "[5]", "result": "improve fasting blood glucose levels and glucose tolerance"}, {"measurement": "decrease of cytotoxicity (literature)", "setting": "human IAPP", "result": "decrease cytotoxicity"}, {"measurement": "inhibition of amyloid fibril formation (literature)", "setting": "human IAPP", "result": "inhibit amyloid fibril formation"}]}, {"compound": "CC[C@H](C)[C@H](NC(=O)[C@@H]1CCCN1C(=O)CNC(=O)[C@H](Cc1ccccc1)NC(=O)[C@H](CC(N)=O)NC(=O)[C@H](CC(N)=O)NC(=O)[C@H](CO)NC(=O)[C@H](CO)NC(=O)[C@H](Cc1c[nH]cn1)NC(=O)[C@@H](NC(=O)[C@H](CC(C)C)NC(=O)[C@H](Cc1ccccc1)NC(=O)[C@H](CC(N)=O)NC(=O)[C@H](C)NC(=O)[C@H](CC(C)C)NC(=O)[C@H](CCCNC(=N)N)NC(=O)[C@H](CCC(N)=O)NC(=O)[C@@H](NC(=O)[C@H](C)NC(=O)[C@@H]1CSSC[C@H](NC(=O)[C@@H](N)CCCCN)C(=O)N[C@@H](CC(N)=O)C(=O)N[C@@H]([C@@H](C)O)C(=O)N[C@@H](C)C(=O)N[C@@H]([C@@H](C)O)C(=O)N1)[C@@H](C)O)C(C)C)C(=O)N[C@@H](CC(C)C)C(=O)N1CCC[C@H]1C(=O)N1CCC[C@H]1C(=O)N[C@H](C(=O)N[C@@H](CC(N)=O)C(=O)N[C@H](C(=O)NCC(=O)N[C@@H](CO)C(=O)N[C@@H](CC(N)=O)C(=O)N[C@H](C(=O)N[C@@H](Cc1ccc(O)cc1)C(N)=O)[C@@H](C)O)C(C)C)[C@@H](C)O", "note": "[pramlintide, reference compound]", "values": [{"measurement": "aggregation propensity relative to comparator", "setting": "[1]", "result": "more amyloidogenic than the present IAPP peptides"}, {"measurement": "aggregation / fibril formation of peptide alone, AFM", "setting": "[1]", "result": "formed amyloid fibers"}, {"measurement": "rescue / protection of cells from hIAPP toxicity (words)", "setting": "RIN-m cells", "result": "no ability to protect cells from the toxic effects of hIAPP"}, {"measurement": "toxicity of peptide to cells", "setting": "RIN-m cells", "result": "toxic to the cells"}]}, {"compound": "CC[C@H](C)[C@H](NC(=O)[C@H](C)NC(=O)CNC(=O)[C@H](CC(C)C)NC(=O)[C@H](CC(N)=O)NC(=O)[C@H](CC(N)=O)NC(=O)[C@H](CO)NC(=O)[C@H](CO)NC(=O)[C@H](CCCNC(=N)N)NC(=O)[C@H](CC(C)C)NC(=O)[C@H](CC(C)C)NC(=O)[C@H](Cc1ccccc1)NC(=O)[C@H](CC(N)=O)NC(=O)[C@H](C)NC(=O)[C@H](CC(C)C)NC(=O)[C@H](CCCNC(=N)N)NC(=O)[C@H](CCC(N)=O)NC(=O)[C@@H](NC(=O)[C@@H](NC(=O)[C@@H]1CSSC[C@H](NC(=O)[C@@H](N)CCCCN)C(=O)N[C@@H](CC(N)=O)C(=O)N[C@@H]([C@@H](C)O)C(=O)N[C@@H](C)C(=O)N[C@@H]([C@@H](C)O)C(=O)N1)C(C)C)[C@@H](C)O)C(=O)N[C@@H](CC(C)C)C(=O)N[C@@H](CO)C(=O)N1CCC[C@H]1C(=O)N[C@H](C(=O)N[C@@H](CC(N)=O)C(=O)N[C@H](C(=O)NCC(=O)N[C@@H](CO)C(=O)N[C@@H](CC(N)=O)C(=O)N[C@H](C(=O)N[C@@H](Cc1ccc(O)cc1)C(N)=O)[C@@H](C)O)C(C)C)[C@@H](C)O", "note": "[raccoon IAPP] (H-KCNTATCVTQRLANFLLRSSNNLGAILSPTNVGSNTY-NH2; disulfide 2-7 (inferred); N-terminus and C-terminus assumed)", "values": [{"measurement": "aggregation propensity relative to comparator", "setting": "[1]", "result": "less aggregation-prone than Pramlintide"}, {"measurement": "aggregation / fibril formation of peptide alone, AFM", "setting": "[1]", "result": "did not aggregate"}, {"measurement": "inhibition of hIAPP fibril formation, AFM", "setting": "human IAPP (hIAPP) [2]", "result": "significant ability to prevent fiber formation"}, {"measurement": "prevention of hIAPP aggregation, AFM (FIG. 5)", "setting": "human IAPP (hIAPP) [2]; 40 μM hIAPP, pramlintide 80 μM (2:1), 40 minutes at 37° C. with shaking", "result": "prevented hIAPP from aggregating"}, {"measurement": "inhibition of hIAPP aggregation (summary statement)", "setting": "human IAPP (hIAPP) [3]", "result": "able to inhibit such aggregation; also recorded: inhibit aggregate formation by hIAPP"}, {"measurement": "rescue / protection of cells from hIAPP toxicity (words)", "setting": "RIN-m cells", "result": "protected the RIN-m cells from the toxic effects of hIAPP; also recorded: significant increase in cell viability; also recorded: rescue living cells from the toxic effects of hIAPP"}, {"measurement": "toxicity of peptide to cells", "setting": "RIN-m cells", "result": "some cellular toxicity"}, {"measurement": "prevention of hIAPP aggregation in the presence of human insulin", "setting": "human IAPP (hIAPP) [4]", "result": "prevent hIAPP aggregation in the presence of human insulin"}]}]}
